Data as given in patent US7368578B2, “Five-membered heterocyclic compounds” (Takeda Pharmaceutical Company Limited, priority 2002, dated 2008).

Row | SMILES | melting point
1 | CCOC(=O)Cc1ccc(-c2nc(COc3ccc(COc4nn(-c5ccccc5)cc4/C=C/c4csc(C)n4)cc3OC)c(C)o2)cc1 [Example 356, ethyl {4-[4-({2-methoxy-4-[({4-[(E)-2-(2-methyl-1,3-thiazol-4-yl)ethenyl]-1-phenyl-1H-pyrazol-3-yl}oxy)methyl]phenoxy}methyl)-5-methyl-1,3-oxazol-2-yl]phenyl}acetate] | 153 to 155 °C
2 | CCOC(=O)Cc1ccc(-c2nc(COc3ccc(COc4nn(-c5ccccc5)cc4/C=C/c4csc(C(C)C)n4)cc3OC)c(C)o2)cc1 [Example 360, ethyl {4-[4-({4-[({4-[(E)-2-(2-isopropyl-1,3-thiazol-4-yl)ethenyl]-1-phenyl-1H-pyrazol-3-yl}oxy)methyl]-2-methoxyphenoxy}methyl)-5-methyl-1,3-oxazol-2-yl]phenyl}acetate] | 89 to 90 °C
3 | CCOC(=O)Cc1ccc(-c2nc(COc3ccc(COc4nn(-c5ccccc5)cc4/C=C\c4csc(C(C)C)n4)cc3OC)c(C)o2)cc1 [Example 360, ethyl {4-[4-({4-[({4-[(Z)-2-(2-isopropyl-1,3-thiazol-4-yl)ethenyl]-1-phenyl-1H-pyrazol-3-yl}oxy)methyl]-2-methoxyphenoxy}methyl)-5-methyl-1,3-oxazol-2-yl]phenyl}acetate] | 126 to 127 °C
4 | COc1cc(COc2nn(-c3ccccc3)cc2/C=C/c2csc(CO)n2)ccc1OCc1nc(-c2ccc(CC(=O)O)cc2)oc1C [Example 365, (4-{4-[(4-{[(4-{(E)-2-[2-(hydroxymethyl)-1,3-thiazol-4-yl]ethenyl}-1-phenyl-1H-pyrazol-3-yl)oxy]methyl}-2-methoxyphenoxy)methyl]-5-methyl-1,3-oxazol-2-yl}phenyl)acetic acid] | 204 to 205 °C
5 | CCOC(=O)Cc1ccc(-c2nc(COc3ccc(COc4nn(-c5ccccc5)cc4/C=C/c4coc(CC)n4)cc3OC)c(C)o2)cc1 [Example 366, ethyl {4-[4-({4-[({4-[(E)-2-(2-ethyl-1,3-oxazol-4-yl)ethenyl]-1-phenyl-1H-pyrazol-3-yl}oxy)methyl]-2-methoxyphenoxy}methyl)-5-methyl-1,3-oxazol-2-yl]phenyl}acetate] | 155 to 157 °C
6 | CCOC(=O)Cc1ccc(-c2nc(COc3ccc(COc4nn(-c5ccccc5)cc4/C=C/c4coc(C(C)C)n4)cc3OC)c(C)o2)cc1 [Example 367, ethyl {4-[4-({4-[({4-[(E)-2-(2-isopropyl-1,3-oxazol-4-yl)ethenyl]-1-phenyl-1H-pyrazol-3-yl}oxy)methyl]-2-methoxyphenoxy}methyl)-5-methyl-1,3-oxazol-2-yl]phenyl}acetate] | 106 to 108 °C
7 | CCOC(=O)Cc1ccc(-c2nc(COc3ccc(COc4nn(-c5ccccc5)cc4/C=C/c4coc(C(C)(C)C)n4)cc3OC)c(C)o2)cc1 [Example 368, ethyl {4-[4-({4-[({4-[(E)-2-(2-tert-butyl-1,3-oxazol-4-yl)ethenyl]-1-phenyl-1H-pyrazol-3-yl}oxy)methyl]-2-methoxyphenoxy}methyl)-5-methyl-1,3-oxazol-2-yl]phenyl}acetate] | 126 to 129 °C
8 | CCc1nc(/C=C/c2cn(-c3ccccc3)nc2OCc2ccc(OCc3nc(-c4cccc(-c5noc(=O)[nH]5)c4)oc3C)c(OC)c2)cs1 [Example 375, 3-{3-[4-({4-[({4-[(E)-2-(2-ethyl-1,3-thiazol-4-yl)ethenyl]-1-phenyl-1H-pyrazol-3-yl}oxy)methyl]-2-methoxyphenoxy}methyl)-5-methyl-1,3-oxazol-2-yl]phenyl}-1,2,4-oxadiazol-5(4H)-one] | 139 to 140 °C
9 | CCOC(=O)Cc1ccc(-c2nc(COc3ccc(COc4nn(-c5ccccc5)cc4/C=C/c4nc(CC)sc4C)cc3OC)c(C)o2)cc1 [Example 378, ethyl {4-[4-({4-[({4-[(E)-2-(2-ethyl-5-methyl-1,3-thiazol-4-yl)ethenyl]-1-phenyl-1H-pyrazol-3-yl}oxy)methyl]-2-methoxyphenoxy}methyl)-5-methyl-1,3-oxazol-2-yl]phenyl}acetate] | 127 to 128 °C
10 | COc1cc(COc2nn(-c3ccccc3)cc2/C=C/c2nc(N3CCN(C(=O)OC(C)(C)C)CC3)sc2C)ccc1OCc1nc(-c2ccc(CC(=O)O)cc2)oc1C [Example 381, [4-(4-{[4-({[4-((E)-2-{2-[4-(tert-butoxycarbonyl)piperazin-1-yl]-5-methyl-1,3-thiazol-4-yl}ethenyl)-1-phenyl-1H-pyrazol-3-yl]oxy}methyl)-2-methoxyphenoxy]methyl}-5-methyl-1,3-oxazol-2-yl)phenyl]acetic acid] | 119 to 120 °C
11 | COc1cc(COc2nn(-c3ccccc3)cc2/C=C/c2nc(N3CCCCC3)sc2C)ccc1OCc1nc(-c2ccc(CC(=O)O)cc2)oc1C [Example 383, [4-{4-[(2-methoxy-4-{[(4-{(E)-2-[5-methyl-2-(piperidin-1-yl)-1,3-thiazol-4-yl]ethenyl}-1-phenyl-1H-pyrazol-3-yl)oxy]methyl}phenoxy)methyl]-5-methyl-1,3-oxazol-2-yl}phenyl]acetic acid] | 146 to 148 °C

The remaining lines, values ahead:

Row | melting point | SMILES
12 | 101 to 102 °C | COc1cc(CN(C)c2nn(-c3ccccc3)cc2C=O)ccc1OCc1nc(-c2ccco2)oc1C [Example 349, 3-([4-{[2-(2-furyl)-5-methyl-1,3-oxazol-4-yl]methoxy}-3-methoxybenzyl](methyl)amino)-1-phenyl-1H-pyrazole-4-carbaldehyde]
13 | 138 to 140 °C | CCc1nc(/C=C/c2cn(-c3ccccc3)nc2OCc2ccc(OCc3nc(-c4cccc(C#N)c4)oc3C)c(OC)c2)cs1 [Example 372, 3-[4-({4-[({4-[(E)-2-(2-ethyl-1,3-thiazol-4-yl)ethenyl]-1-phenyl-1H-pyrazol-3-yl}oxy)methyl]-2-methoxyphenoxy}methyl)-5-methyl-1,3-oxazol-2-yl]benzonitrile]
14 | 211 to 213 °C | CCc1nc(/C=C/c2cn(-c3ccccc3)nc2OCc2ccc(OCc3nc(-c4cccc(C(=O)NS(C)(=O)=O)c4)oc3C)c(OC)c2)cs1 [Example 376, 3-[4-({4-[({4-[(E)-2-(2-ethyl-1,3-thiazol-4-yl)ethenyl]-1-phenyl-1H-pyrazol-3-yl}oxy)methyl]-2-methoxyphenoxy}methyl)-5-methyl-1,3-oxazol-2-yl]-N-(methylsulfonyl)benzamide]
15 | 112 to 114 °C | CCOC(=O)Cc1ccc(-c2nc(COc3ccc(COc4nn(-c5ccccc5)cc4/C=C/c4nc(N5CCN(C(=O)OC(C)(C)C)CC5)sc4C)cc3OC)c(C)o2)cc1 [Example 380, tert-butyl 4-{4-[(E)-2-(3-{[4-({2-[4-(2-ethoxy-2-oxoethyl)phenyl]-5-methyl-1,3-oxazol-4-yl}methoxy)-3-methoxybenzyl]oxy}-1-phenyl-1H-pyrazol-4-yl)ethenyl]-5-methyl-1,3-thiazol-2-yl}piperazine-1-carboxylate]
16 | 131 to 132 °C | CCOC(=O)Cc1ccc(-c2nc(COc3ccc(COc4nn(-c5ccccc5)cc4/C=C/c4nc(N5CCCCC5)sc4C)cc3OC)c(C)o2)cc1 [Example 382, ethyl [4-{4-[(2-methoxy-4-{[(4-{(E)-2-[5-methyl-2-(piperidin-1-yl)-1,3-thiazol-4-yl]ethenyl}-1-phenyl-1H-pyrazol-3-yl)oxy]methyl}phenoxy)methyl]-5-methyl-1,3-oxazol-2-yl}phenyl]acetate]
17 | 171 to 173 °C | COc1cc(COc2nn(-c3ccccc3)cc2/C=C/c2nc(N3CCOCC3)sc2C)ccc1OCc1nc(-c2ccc(CC(=O)O)cc2)oc1C [Example 385, [4-(4-{[2-methoxy-4-({[4-{(E)-2-[5-methyl-2-(morpholin-4-yl)-1,3-thiazol-4-yl]ethenyl}-1-phenyl-1H-pyrazol-3-yl]oxy}methyl)phenoxy]methyl)-5-methyl-1,3-oxazol-2-yl}phenyl]acetic acid]
18 | 113 to 115 °C | CCc1nc(/C=C/c2cn(-c3ccccc3)nc2OCc2ccc(OCc3nc(-c4cccc(NS(C)(=O)=O)c4)oc3C)c(OC)c2)cs1 [Example 388, N-{3-[4-({4-[({4-[(E)-2-(2-ethyl-1,3-thiazol-4-yl)ethenyl]-1-phenyl-1H-pyrazol-3-yl}oxy)methyl]-2-methoxyphenoxy}methyl)-5-methyl-1,3-oxazol-2-yl]phenyl}methanesulfonamide]
19 | 156 to 158 °C | CCc1nc(/C=C/c2cn(-c3ccccc3)nc2OCc2cc(OCc3nc(-c4ccc(CC(=O)O)cc4)oc3C)no2)cs1 [Example 390, (4-{4-[({5-[({4-[(E)-2-(2-ethyl-1,3-thiazol-4-yl)ethenyl]-1-phenyl-1H-pyrazol-3-yl}oxy)methyl]isoxazol-3-yl}oxy)methyl]-5-methyl-1,3-oxazol-2-yl}phenyl)acetic acid]
